Key:
S. aureus [1] = assay: Primary stage MIC measurement of antibiotic alone (OD 600 nm growth curves, 18 h); assay type: cell-based, Staphylococcus aureus
Description: The following day, the turbidity of the actively-growing broth culture was adjusted with Calcium-adjusted Mueller Hinton broth II (MHBII) to be equivalent to that of a 0.5 McFarland standard (1×10^8 CFU/ml). The broth culture was maintained under ambient conditions prior to use.
The method used in this stage was based on the classic Minimum Inhibitory Concentration (MIC) measurements, as described by the Clinical and Laboratory Standards Institute (CLSI) document M07-A9: “Method for Dilution Antimicrobial Susceptibility Test for Bacteria that Grow Aerobically”. While classic MIC measurements require visual inspection of plates for bacterial growth after 18 hours, growth was monitored in the present study according to optical density (OD) at 600 nm, using an ELISA reader (MultiSkan™ FC ELISA reader, Thermo Fisher Scientific, Massachusetts, USA), thereby obtaining bacterial growth curves for tested antibiotic solutions.
Columns 1 and 3-12: 100 μl of MHBII alone was added to each well.
[…]: 200 μl of a solution of antibiotic in MHBII at the highest concentration to be tested was added to each well.
A series of 2-fold dilutions was performed, wherein 100 μl of solution of antibiotic was withdrawn from each well of column 2, transferred to the corresponding well of column 3, and mixed.
The dilution was then repeated by transfer from column 3 to column 4, and so on, until column 11, when the 100 μl of solution of antibiotic withdrawn from each well of column 11 was discarded.
The 5×10^6 CFU/ml stock suspension which had been prepared in advance was transferred into a reservoir and 10 μl of the stock suspension were added into each well of columns 2-11 using a multichannel pipette to obtain a final 5×10^5 CFU/ml suspension.
The plate was then incubated at 37° C. with shaking in the ELISA reader and the optical density at 600 nm was read every 20 minutes for a total of 18 hours.
The average OD reading obtained for each antibiotic concentration was calculated and plotted against time to obtain a growth curve.
The MIC was determined as the first antibiotic concentration at which […] by the end of the 18-hour period.

S. aureus [2] = details: cited from earlier work

SMILES | MIC as single antibiotics in the absence of ORC (first stage MIC results) (S. aureus [1]) [ng/mL] | MIC values for S. aureus according to the literature (S. aureus [2]) [ng/mL]
CN(C)c1ccc(O)c2c1C[C@H]1C[C@H]3[C@H](N(C)C)C(O)=C(C(N)=O)C(=O)[C@@]3(O)C(O)=C1C2=O [Minocycline, minocycline] | 250 | 
CO[C@H]1/C=C/O[C@@]2(C)Oc3c(C)c(O)c4c(O)c(c(/C=N/N5CCN(C)CC5)c(O)c4c3C2=O)NC(=O)/C(C)=C\C=C\[C@H](C)[C@H](O)[C@@H](C)[C@@H](O)[C@@H](C)[C@H](OC(C)=O)[C@@H]1C [Rifampin, rifampin] | 15 | 4 to 15

Reference: patent US20190184069A1, “ANTIMICROBIAL COMPOSITIONS COMPRISING MINOCYCLINE AND DEGRADATION PRODUCTS OF OXIDIZED CELLULOSE” (Omrix Biopharmaceuticals Ltd., priority 2017, published 2019)
